# Values quoted from earlier work as cited in article PMC10973013, “Translational Potential of a Contrast Agent for FGS Applications in pNETs” (Molecular Imaging and Biology, 2024).
# Test system: lesions in ovarian cancer patients
# Settings: cytoreductive surgery, randomized phase 3
# Description: The critical need for accurate tumor detection during oncologic surgery has led to the development of fluorescent contrast agents that target cancerous tissues. This technique, known as fluorescence-guided surgery (FGS), typically involves systemic administration of a fluorescent compound that contains a tumor-targeting moiety and is imaged in the near-infrared spectral range in order to maximize image contrast and diagnostic accuracy. In 2021, the folic acid analog OTL-38 (CYTALUX®) became the first clinically approved FGS agent to target tumors via an active, receptor-mediated process. ...
smiles,measurement,value
CC1(C)C(/C=C/C2=C(Oc3ccc(C[C@H](NC(=O)c4ccc(NCc5cnc6nc(N)[nH]c(=O)c6n5)cc4)C(=O)[O-])cc3)C(=C/C=C3\N(CCCCS(=O)(=O)[O-])c4ccc(S(=O)(=O)[O-])cc4C3(C)C)/CCC2)=[N+](CCCCS(=O)(=O)[O-])c2ccc(S(=O)(=O)[O-])cc21.[H+].[H+].[H+].[H+] [OTL-38],identification of lesions with FGS versus standard-of-care methods,more effectively identified with FGS than with standard-of-care methods
